ChEMBL document CHEMBL1144590, “Thienopyridine urea inhibitors of KDR kinase” (Bioorg Med Chem Lett, 2007)

Tests used:
[1] = target: T1, Vascular endothelial growth factor receptor 2 (Homo sapiens, UniProt P35968); assay type: functional, cell-based, NIH3T3
[2] = target: T1, Vascular endothelial growth factor receptor 2
[3] = test system: Mus musculus; assay: Inhibition of estradiol-induced mouse uterine edema […]; assay type: functional
[4] = target: Cytochrome P450 3A4 (Homo sapiens, UniProt P08684); assay: Inhibition of CYP3A4; assay type: ADME
Sequence of Cytochrome P450 3A4 (P08684 whole entry): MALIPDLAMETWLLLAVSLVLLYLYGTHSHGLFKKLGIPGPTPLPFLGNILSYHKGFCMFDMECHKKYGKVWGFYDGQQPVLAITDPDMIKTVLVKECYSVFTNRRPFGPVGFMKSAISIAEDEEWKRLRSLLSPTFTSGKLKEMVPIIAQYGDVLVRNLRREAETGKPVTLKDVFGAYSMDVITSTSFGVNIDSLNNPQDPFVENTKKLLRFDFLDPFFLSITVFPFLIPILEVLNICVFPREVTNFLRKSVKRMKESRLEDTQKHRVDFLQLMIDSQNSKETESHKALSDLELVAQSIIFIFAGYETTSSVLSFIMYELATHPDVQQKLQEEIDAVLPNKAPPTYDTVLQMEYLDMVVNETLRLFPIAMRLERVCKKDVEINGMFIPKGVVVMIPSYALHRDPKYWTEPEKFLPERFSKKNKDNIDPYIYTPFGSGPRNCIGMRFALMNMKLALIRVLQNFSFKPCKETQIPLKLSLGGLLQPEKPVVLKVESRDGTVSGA

[5] = Half life in mouse at 3 mg/kg, iv; assay type: ADME, organism-based; design: dose 3 mg/kg, route intravenous; details: in vivo

T1 sequence (P35968 whole entry): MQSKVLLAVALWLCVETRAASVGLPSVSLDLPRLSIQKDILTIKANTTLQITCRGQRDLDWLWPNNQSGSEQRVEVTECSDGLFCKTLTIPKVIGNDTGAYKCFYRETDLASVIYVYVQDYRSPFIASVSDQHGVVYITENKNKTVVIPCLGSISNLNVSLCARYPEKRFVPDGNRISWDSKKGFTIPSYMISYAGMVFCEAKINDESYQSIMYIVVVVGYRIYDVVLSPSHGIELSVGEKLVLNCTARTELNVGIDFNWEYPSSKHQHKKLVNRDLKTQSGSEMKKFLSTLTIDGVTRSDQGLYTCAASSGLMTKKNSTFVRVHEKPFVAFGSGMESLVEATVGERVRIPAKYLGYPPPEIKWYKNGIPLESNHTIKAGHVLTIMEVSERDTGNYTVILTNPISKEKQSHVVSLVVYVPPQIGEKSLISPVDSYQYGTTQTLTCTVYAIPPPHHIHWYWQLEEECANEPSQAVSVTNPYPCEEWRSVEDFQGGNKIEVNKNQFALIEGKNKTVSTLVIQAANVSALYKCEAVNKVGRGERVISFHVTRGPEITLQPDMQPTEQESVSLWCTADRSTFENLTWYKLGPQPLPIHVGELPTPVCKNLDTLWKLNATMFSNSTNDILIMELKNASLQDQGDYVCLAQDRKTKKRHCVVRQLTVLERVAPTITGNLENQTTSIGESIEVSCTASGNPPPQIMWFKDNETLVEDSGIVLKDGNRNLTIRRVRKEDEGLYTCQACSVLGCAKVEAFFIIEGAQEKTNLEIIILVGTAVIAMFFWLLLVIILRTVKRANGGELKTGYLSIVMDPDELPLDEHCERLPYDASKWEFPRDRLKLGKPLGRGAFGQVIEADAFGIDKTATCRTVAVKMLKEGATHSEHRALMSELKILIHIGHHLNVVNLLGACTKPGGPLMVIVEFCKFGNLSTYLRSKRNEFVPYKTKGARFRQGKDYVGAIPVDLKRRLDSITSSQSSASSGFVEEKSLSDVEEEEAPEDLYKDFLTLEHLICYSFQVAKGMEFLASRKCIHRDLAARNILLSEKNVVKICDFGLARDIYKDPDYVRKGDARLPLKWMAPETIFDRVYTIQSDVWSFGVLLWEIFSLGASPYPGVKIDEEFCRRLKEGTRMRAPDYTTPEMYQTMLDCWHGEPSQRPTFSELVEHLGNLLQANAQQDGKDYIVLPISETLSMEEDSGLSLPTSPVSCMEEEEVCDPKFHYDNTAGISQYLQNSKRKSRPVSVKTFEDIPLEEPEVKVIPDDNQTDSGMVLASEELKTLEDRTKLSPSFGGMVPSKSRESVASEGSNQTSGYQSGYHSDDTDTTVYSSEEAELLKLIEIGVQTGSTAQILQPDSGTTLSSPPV

Row | Compound | IC50 [1] [nM] | IC50 [2] [nM] | further results
1 | CCc1cccc(NC(=O)Nc2ccc(-c3csc4ccnc(N)c34)cc2)c1 | 32 | 25 | –
2 | Cc1cccc(NC(=O)Nc2ccc(-c3csc4c(-c5cncnc5)cnc(N)c34)cc2)c1 | 1 | 8 | –
3 | Cc1cccc(NC(=O)Nc2ccc(-c3csc4c(-c5cncc6ccccc56)cnc(N)c34)cc2)c1 | – | 388 | –
4 | Nc1ccc(-c2csc3ccnc(N)c23)cc1 | – | 4900 | –
5 | Nc1nccc2scc(-c3ccc(NC(=O)c4ccccc4)cc3)c12 | – | 12000 | –
6 | Nc1nccc2scc(-c3ccc(NC(=O)Nc4ccccc4)cc3)c12 | 72 | 56 | –
7 | Cc1ccc(NC(=O)Nc2ccc(-c3csc4ccnc(N)c34)cc2)cc1C | 41 | 10 | –
8 | Cc1cc(C)cc(NC(=O)Nc2ccc(-c3csc4ccnc(N)c34)cc2)c1 | 48 | 16 | –
9 | Nc1nccc2scc(-c3ccc(NC(=O)NC4CCCC4)cc3)c12 | – | 420 | –
10 | Cc1cccc(N(C)C(=O)Nc2ccc(-c3csc4ccnc(N)c34)cc2)c1 | – | 4900 | –
11 | Cc1cccc(NC(=O)N(C)c2ccc(-c3csc4ccnc(N)c34)cc2)c1 | – | 23 | –
12 | Cc1cccc(NC(=O)Cc2ccc(-c3csc4ccnc(N)c34)cc2)c1 | – | 94 | –
13 | Nc1nccc2scc(-c3ccc(NC(=O)Nc4cccc5ccccc45)cc3)c12 | 895 | 75 | –
14 | Nc1nccc2scc(-c3ccc(NC(=O)Nc4ccc5ccccc5c4)cc3)c12 | 15 | 21 | –
15 | Nc1nccc2scc(-c3ccc(NC(=O)Nc4ccsc4)cc3)c12 | 61 | 38 | –
16 | Nc1nccc2scc(-c3ccc(NC(=O)NC4CCCCC4)cc3)c12 | – | 491 | –
17 | Cc1cccc(NC(=O)Nc2cccc(-c3csc4ccnc(N)c34)c2)c1 | – | 250 | –
18 | Cc1ccc(NC(=O)Nc2ccc(-c3csc4ccnc(N)c34)cc2)cc1 | 141 | 26 | –
19 | Cc1cccc(NC(=O)Nc2ccc(-c3csc4c(-c5ccccc5)cnc(N)c34)cc2)c1 | 33 | 13 | –
20 | CNC(=O)c1cccc(-c2cnc(N)c3c(-c4ccc(NC(=O)Nc5cccc(C)c5)cc4)csc23)c1 | 56 | 11 | –
21 | Cc1cccc(NC(=S)Nc2ccc(-c3csc4ccnc(N)c34)cc2)c1 | – | 410 | –
22 | Cc1cccc(NC(=O)Nc2ccc(-c3c(C)sc4ccnc(N)c34)cc2)c1 | – | 27 | –
23 | Cc1cccc(CC(=O)Nc2ccc(-c3csc4ccnc(N)c34)cc2)c1 | – | 520 | –
24 | Cc1ccccc1NC(=O)Nc1ccc(-c2csc3ccnc(N)c23)cc1 | – | 152 | –
25 | N#Cc1cccc(NC(=O)Nc2ccc(-c3csc4ccnc(N)c34)cc2)c1 | 198 | 45 | –
26 | Nc1nccc2scc(-c3ccc(NC(=O)Nc4cccs4)cc3)c12 | 48 | 30 | –
27 | Cc1cccc(NC(=O)Nc2ccc(-c3csc4c(-c5ccc(O)cc5)cnc(N)c34)cc2)c1 | 29 | 11 | –
28 | Cc1cccc(NC(=O)Nc2ccc(-c3csc4c(-c5cccnc5)cnc(N)c34)cc2)c1 | – | – | ED50 [3]: 2.1 mg/kg; IC50 [4]: 250 nM; half-life [5]: 24 min
29 | Nc1nccc2scc(-c3ccccc3)c12 | – | > 12500 | –
